From patent US6174858A, “Conjugates useful in the treatment of prostate cancer” (Merck & Co., Inc., priority 1998, dated 2001)
Read-outs that look alike come from different tables or passages of the source.

Legend:
[1] = test system: LNCaP prostate tumor cells; test: In vitro cytotoxicity, Alamar Blue assay, LNCaP cell kill; type: cell-based
Protocol: (§1) In vitro Assay of Cytotoxicity of Peptidyl Derivatives of Vinca Drugs
(§2) Specifically, cell cultures of LNCap prostate tumor cells, Colo32ODM cells (designated C320) or T47D cells in 96 well plates was diluted with medium containing various concentrations of a given conjugate (final plate well volume of 200 μl). […] The cells were incubated for 3 days at 37° C., 20 μl of Alamar Blue is added to the assay well. The cells were further incubated and the assay plates were read on a EL-310 ELISA reader at the dual wavelengths of 570 and 600 nm at 4 and 7 hours after addition of Alamar Blue. Relative percentage viability at the various concentration of conjugate tested was then calculated versus control (no conjugate) cultures and an EC50 was determined. Unless otherwise indicated, the acetate salt of the conjugate was tested.

[2] = biological target: T1, free PSA (York PSA) (Homo sapiens, UniProt P07288); test: Recognition of oligopeptide-vinca drug conjugates by free PSA (time to 50% cleavage, HPLC); type: biochemical; details: for Time to 50% Substrate Cleavage by York PSA: conjugate to PSA molar ratio 100 to 1, pH 7.4
T1 construct: purchased York ('York PSA')
Protocol: The reaction was quenched after various reaction times by the addition of trifluoroacetic acid (TFA) to a final 1% (volume/volume). Alternatively the reaction is quenched with 10 mM ZnCl2. The quenched reaction was analyzed by HPLC on a reversed-phase C18 column using an aqueous 0.1%TFA/acetonitrile gradient. The amount of time (in minutes) required for 50% cleavage of the noted oligopeptide-cytotoxic agent conjugates with enzymatically active free PSA were then calculated.

[3] = test system: Colo320DM cells; test: In vitro cytotoxicity, Alamar Blue assay, Colo320DM control cell line (does not express free PSA); type: cell-based
Protocol: as §1
as §2, with “The cytotoxicities of the cleaveable oligopeptide-vinca drug conjugates, prepared as described in Example 3, against a line of cells which is known to be killed by unmodified vinca drug was assessed with an Alamar Blue assay. Specifically,” for “Specifically,”

[4] = 72 HRS, second part of Table 2, read-out: LNCaP Cell Kill in 72 HRS. {48 HRS} EC 50
[5] = 72 HRS, second part of Table 2, read-out: Colo320DM EC 50
[6] = 72 HRS, read-out: LNCaP Cell Kill in 72 HRS. {48 HRS} EC 50
[7] = 72 HRS, read-out: Colo320DM EC 50

T1 sequence (P07288 25-261): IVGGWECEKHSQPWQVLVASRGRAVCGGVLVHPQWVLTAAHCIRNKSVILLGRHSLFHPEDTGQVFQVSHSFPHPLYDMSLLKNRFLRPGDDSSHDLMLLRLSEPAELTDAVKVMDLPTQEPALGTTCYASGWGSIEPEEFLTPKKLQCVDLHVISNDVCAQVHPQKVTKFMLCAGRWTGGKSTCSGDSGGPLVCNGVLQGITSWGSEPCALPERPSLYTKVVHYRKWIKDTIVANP

For “4-O-[Ac-4-trans-L-HypSSChgQSS-Pip]-dAc-VIN: peptide-vinca drug conjugate, SEQ ID NO 124 (XSSXQSSX; N-acetyl; desacetylvinblastine conjugate)”, the EC50 [1, 4] was 7.5 µM, the “Time to 50% Substrate Cleavage by York PSA” value [2] was 13 min and the EC50 [3, 5] was 60 µM.

`CCC1(O)CC2CN(CCc3c([nH]c4ccccc34)C(C(=O)OC)(c3cc4c(cc3OC)N(C)C3C(O)(C(=O)OC)C(OC(=O)C(C)NC)C5(CC)C=CCN6CCC43C65)C2)C1` (centres unmarked) [4-O-[N-Me-dA]-dAc-VIN] showed an EC50 [1, 4] of 1 µM and an EC50 [3, 5] of 1.7 µM.

Work on `CCC1(O)CC2CN(CCc3c([nH]c4ccccc34)C(C(=O)OC)(c3cc4c(cc3OC)N(C)C3C(O)(C(=O)OC)C(OC(=O)C5CCCN5C(=O)C(CO)NC(=O)C(N)CO)C5(CC)C=CCN6CCC43C65)C2)C1` (centres unmarked) [4-O-(SSP)-dAc-VIN] yielded an EC50 [1, 4] of 2 µM and an EC50 [3, 5] of 14.5 µM.

For “4-O-(Ac-SChgQ-SSP)-dAc-VIN: peptide-vinca drug conjugate, SEQ ID NO 116 (XXQSSP; N-acetyl; desacetylvinblastine conjugate)”, the EC50 [1, 4] was 15 µM, the “Time to 50% Substrate Cleavage by York PSA” value [2] was 15 min and the EC50 [3, 5] was 20 µM.

For `CCC1(O)CC2CN(CCc3c([nH]c4ccccc34)C(C(=O)OC)(c3cc4c(cc3OC)N(C)C3C(O)(C(=O)OC)C(OC(=O)C5CCCN5)C5(CC)C=CCN6CCC43C65)C2)C1` (centres unmarked) [4-O-(d)-prolyl-(dAc)-VIN ester], the EC50 [1, 4] was 2 µM and the EC50 [3, 5] was 4.1 µM.

`CCC1(O)CC2CN(CCc3c([nH]c4ccccc34)C(C(=O)OC)(c3cc4c(cc3OC)N(C)C3C(O)(C(=O)OC)C(OC(=O)C(C)N)C5(CC)C=CCN6CCC43C65)C2)C1` (centres unmarked) [(4-O-Ala)-(dAc)-VIN] was tested, and the EC50 [1, 4] was 0.6 µM and the EC50 [3, 5] was 4.2 µM.

In the case of `CC[C@]1(O)C[C@H]2CN(CCc3c([nH]c4ccccc34)[C@@](C(=O)OC)(c3cc4c(cc3OC)N(C)[C@H]3[C@@](O)(C(=O)OC)[C@H](OC(=O)CNC)[C@]5(CC)C=CCN6CC[C@]43[C@@H]65)C2)C1` [4-O-sarcosyl-(dAc)-VIN], the EC50 [1, 6] is reported as 1.3 µM and the EC50 [3, 7] is reported as 1.8 µM.

“Ac-AbuSSChgQ-SS-(4-O-P)-dAc-VIN: peptide-vinca drug conjugate, SEQ ID NO 109 in Table 1, 108 in Table 2 (XSSXQSSP; N-acetyl; desacetylvinblastine conjugate)” was tested, and the EC50 [1, 4] was 12.8 µM, the “Time to 50% Substrate Cleavage by York PSA” value [2] was 7 min and the EC50 [3, 5] was 28.4 µM.

For “4-O-(Ac-Abu-SSChgQ-SP)-dAc-VIN: peptide-vinca drug conjugate, SEQ ID NO 90 (XSSXQSP; N-acetyl; desacetylvinblastine conjugate)”, the EC50 [1, 6] was 9.7 µM, the EC50 ([1]; in 0.5% FBS, read-out: LNCaP Cell Kill EC 50 in 0.5% FBS) was > 5 µM and the “Time to 50% Substrate Cleavage by York PSA” value [2] was 80 min. For the same compound, the EC50 [3, 7] was 14.5 µM and the EC50 ([3]; in 0.5% FBS, read-out: Colo320DM EC 50 in 0.5% FBS) was 23.8 µM.

Work on `CCC1(O)CC2CN(CCc3c([nH]c4ccccc34)C(C(=O)OC)(c3cc4c(cc3OC)N(C)C3C(O)(C(=O)OC)C(OC(=O)C5CCCN5C(=O)C(N)CO)C5(CC)C=CCN6CCC43C65)C2)C1` (centres unmarked) [4-O-(SP)-dAc-VIN] yielded an EC50 [1, 4] of 0.1 µM and an EC50 [3, 5] of 0.3 µM.

For “4-O-(Ac-3-Pal-SSChgQS-P)-dAc-VIN: peptide-vinca drug conjugate, SEQ ID NO 92”, the EC50 [1, 6] was 5.8 µM, the “Time to 50% Substrate Cleavage by York PSA” value [2] was 80 min and the EC50 [3, 7] was 8 µM.

In the case of `CCC(N)C(=O)O[C@@H]1[C@]2(CC)C=CCN3CC[C@@]4(c5cc([C@@]6(C(=O)OC)C[C@@H]7CN(CCc8c6[nH]c6ccccc86)C[C@](O)(CC)C7)c(OC)cc5N(C)[C@H]4[C@@]1(O)C(=O)OC)[C@@H]32` (some centres unmarked) [4-O-Abu-(dAc)-VIN, I isoform], the EC50 [1, 4] is reported as 3.9 µM and the EC50 [3, 5] is reported as 2.3 µM.

With `CC[C@]1(O)C[C@@H]2CN(CCc3c([nH]c4ccccc34)[C@@](C(=O)OC)(c3cc4c(cc3OC)N(C)[C@H]3[C@@](O)(C(=O)OC)[C@H](OC(C)=O)[C@]5(CC)C=CCN6CC[C@]43[C@@H]65)C2)C1` [VINBLASTINE, vinblastine, reference compound] the EC50 ([1]; Homo sapiens, 72 HRS, read-out: LNCaP Cell Kill in 72 HRS. {48 HRS} EC 50) was 0.5 µM and the EC50 ([3]; Homo sapiens, COLO 320DM, 72 HRS, read-out: Colo320DM EC 50) was 0.5 µM.

With “des-Acetylvinblastine-4-O-(N-Acetyl-4-trans-L-Hyp-Ser-Ser Chg-Gln-Ser-Ser-Pro) ester acetate (XSSXQSSP; N-acetyl; desacetylvinblastine ester; acetate salt)” the EC50 [1, 6] was 3 µM, the “Time to 50% Substrate Cleavage by York PSA” value [2] was 17 min and the EC50 [3, 7] was 12 µM.

For `CC[C@]1(O)C[C@H]2CN(CCc3c([nH]c4ccccc34)[C@@](C(=O)OC)(c3cc4c(cc3OC)N(C)[C@H]3[C@@](O)(C(=O)OC)[C@H](OC(=O)[C@@H](N)CC(C)C)[C@]5(CC)C=CCN6CC[C@]43[C@@H]65)C2)C1` [4-O-leucyl-(dAc)-VIN], the EC50 [1, 4] was 4.5 µM and the EC50 [3, 5] was 4.5 µM.

`CC[C@]1(O)C[C@@H]2CN(CCc3c([nH]c4ccccc34)[C@@](C(=O)OC)(c3cc4c(cc3OC)N(C)[C@H]3[C@@](O)(C(=O)OC)[C@H](OC(=O)CN)[C@]5(CC)C=CCN6CC[C@]43[C@@H]65)C2)C1` [4-O-glycine-(dAc)-VIN] showed an EC50 [1, 6] of 0.3 µM and an EC50 [3, 7] of 1.8 µM.

`CCC1(O)CC2CN(CCc3c([nH]c4ccccc34)C(C(=O)OC)(c3cc4c(cc3OC)N(C)C3C(O)(C(=O)OC)C(OC(=O)C5CCCCN5)C5(CC)C=CCN6CCC43C65)C2)C1` (centres unmarked) [4-O-pipecolyl-dAc-VIN] gave an EC50 [1, 4] of 0.7 µM and an EC50 [3, 5] of 0.7 µM.

With “4-O-(Ac-4-trans-L-HypSSChgQSV-glycolyl)-VIN: peptide-vinca drug conjugate, SEQ ID NO 88 (XSSXQSV; N-acetyl; glycolyl linker; vinblastine conjugate)” the EC50 [1, 6] was 4.1 µM, the “Time to 50% Substrate Cleavage by York PSA” value [2] was 8 min and the EC50 [3, 7] was 8.1 µM.

With “4-O-(Ac-4-trans-L-HypSSChgQ-SS-4-trans-L-Hyp)-dAc-VIN: peptide-vinca drug conjugate, SEQ ID NO 95 (XSSXQSSX; N-acetyl; desacetylvinblastine conjugate)” the EC50 [1, 6] was 16.3 µM, the “Time to 50% Substrate Cleavage by York PSA” value [2] was 13 min and the EC50 [3, 7] was 13.1 µM.

Compound `CCC1(O)CC2CN(CCc3c([nH]c4ccccc34)C(C(=O)OC)(c3cc4c(cc3OC)N(C)C3C(O)(C(=O)OC)C(OC(=O)C5CC(O)CN5)C5(CC)C=CCN6CCC43C65)C2)C1` [(4-O-4-trans-L-Hyp)-dAc-VIN] has an EC50 [1, 6] of 0.6 µM and an EC50 [3, 7] of 1.1 µM.

In the case of `CCC1(O)CC2CN(CCc3c([nH]c4ccccc34)C(C(=O)OC)(c3cc4c(cc3OC)N(C)C3C(O)(C(=O)OC)C(OC(=O)CO)C5(CC)C=CCN6CCC43C65)C2)C1` (centres unmarked) [4-hydroxyacetyl-VIN], the EC50 [1, 4] is reported as 1.3 µM and the EC50 [3, 5] is reported as 3.3 µM.

“4-O-(Ac-4-trans-L-HypSSChgQSV-lactyl)-dAc-VIN: peptide-vinca drug conjugate, SEQ ID NO 94” was tested, and the EC50 [1, 6] was 3.1 µM, the “Remark printed with the cleavage time (stability of conjugate / fate of product)” value ([2]; PSA digestion) was “stable” and the “Time to 50% Substrate Cleavage by York PSA” value [2] was 7 min. It also gave an EC50 [3, 7] of 8.1 µM.

In the case of “4-O-[Ac-4-trans-L-HypSSChg(dQ)SSP]-dAc-VIN: peptide-vinca drug conjugate, SEQ ID NO 114 (XSSXXSSP; N-acetyl; D-Gln; desacetylvinblastine conjugate)”, the EC50 [1, 4] is reported as 12.2 µM, the “Substrate cleavage by York PSA, 10 X ENZ o/n” value ([2]; 10 X ENZ, o/n) is reported as 0% and the EC50 [3, 5] is reported as 43.7 µM.

With `CCC(N)C(=O)OC1C2(CC)C=CCN3CCC4(c5cc(C6(C(=O)OC)CC7CN(CCc8c6[nH]c6ccccc86)CC(O)(CC)C7)c(OC)cc5N(C)C4C1(O)C(=O)OC)C32` (racemic) [4-O-Abu-(dAc)-VIN, racemic mixture] the EC50 [1, 4] was 3.8 µM and the EC50 [3, 5] was 5.5 µM.

In the case of `CCC1(O)CC2CN(CCc3c([nH]c4ccccc34)C(C(=O)OC)(c3cc4c(cc3OC)N(C)C3C(O)(C(=O)OC)C(OC(=O)C(N)Cc5ccccc5)C5(CC)C=CCN6CCC43C65)C2)C1` (centres unmarked) [(4-O-Phe)-(dAc)-VIN], the EC50 [1, 4] is reported as 3.8 µM and the EC50 [3, 5] is reported as 2.2 µM.

For `CCC1(O)CC2CN(CCc3c([nH]c4ccccc34)C(C(=O)OC)(c3cc4c(cc3OC)N(C)C3C(O)(C(=O)OC)C(OC(=O)C5CCCN5)C5(CC)C=CCN6CCC43C65)C2)C1` (centres unmarked) [4-O-(prolyl)-dAc-VIN, 4-des- Acetylvinblastine 4-O-(Prolyl) ester], the EC50 [1, 4] was 0.7 µM and the EC50 [3, 5] was 4.1 µM.
